Experimental data as given in patent US8921071B2, “Targeting poly-gamma-glutamic acid to treat Staphylococcus epidermidis and related infections” (priority 2005, dated 2014).
No end group written: not given here.

Test system: S. epidermidis
Assay: Peptide bacterial killing assay
Format: cell-based, Staphylococcus epidermidis
Conditions: S. epidermidis Δcap versus wild-type; approximately 10^5 cells; 0-40 μg/ml peptide; 2 hours at 37° C.; survivors counted by plating
Method: S. epidermidis cultures were harvested, washed with PBS buffer, and resuspended in 10 mM sodium phosphate buffer (pH 7.0). Bacterial killing assays were performed using a final concentration of approximately 10^5 S. epidermidis cells in each sample. Antimicrobial peptides were dissolved in the following solutions: human β-defensin 3, 10 mM acetic acid, and LL-37, 10% acetonitrile with 0.1% trifluoroacetic acid. The bacteria were exposed to a range of antimicrobial peptide concentrations (0, 5, 10, 20, 30, and 40 μg/ml). An equal volume of the respective peptide dilution buffer was applied to control samples. Samples were incubated at 37° C. for 2 hours and appropriate dilution series of the samples were plated on TSB agar. Survivor S. epidermidis cells were enumerated after 24 hours of incubation at 37° C. The percentage of killed S. epidermidis was calculated using the formula (1−[CFUpeptide/CFUcontrol])×100.
Resistance to cationic antimicrobial peptides was determined by incubating washed S. epidermidis cells (approximately 10^5) with LL-37 or human β-defensin 3 in various concentrations of antimicrobial peptides for 2 hours at 37° C. Thereafter, S. epidermidis survivor cells were counted by plating. Results are shown as dose-response curves. […] Values of significance were calculated against the wild-type (for Δcap) and Δcap (for capBCAD) strains.

Substance | resistance of the cap mutant strain to antibacterial peptide
LL-37 (LLGDFFRKSKEKIGKEFKRIVQRIKDFLRNLVPRTES; Antibacterial peptide LL-37; UniProt P49913 134-170, looked up) [representative cationic antibacterial peptide from human skin and neutrophil specific granules] | significantly reduced resistance
human β-defensin 3 (GIINTLQKYYCRVRGGRCAVLSCLPKEEQIGKCSTRGRKCCRRKK; ends and bridges not checked; cysteine pairing not given here; UniProt P81534 23-67, looked up) [representative cationic antibacterial peptide from human skin and neutrophil specific granules] | significantly reduced resistance
